Source: patent publication EP1401829B1, “NOVEL HETEROCYCLIC ANTIBACTERIAL COMPOUNDS” (Microbiotix, Inc., priority 2001, dated 2002)
Values after ≈ are worked out from the molar mass of the structure shown. Where two headings read alike, the source gives them in different places. Marks after values point to notes of the source that are not given here.

Experiments:
B. subtilis Pol IIIC = molecular target: T1, B. subtilis Pol IIIC (Bacillus subtilis, UniProt P13267); test: Polymerase IIIC (Pol IIIC) assay, determination of Ki values; type: biochemical; details: Ki (µM) Pol IIIC, assay in absence of dGTP or dATP; Ki is the concentration that reduces control polymerase IIIC activity by 50 percent
T1 construct: made in house
Procedure, shortened: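 Isolated B. subtilis Pol IIIC (0.025–0.06 units) run 10 min at 30°C in 30 mM Tris pH 7.5, 10 mM Mg acetate, 4 mM DTT, 20% glycerol. Substrates were 0.4 mg/ml activated calf thymus DNA, 25 µM dNTPs and 10 µM [3H]dTTP, with dGTP or dATP omitted per compound structure.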

B. subtilis = test: Minimal Inhibitory Concentration (MIC) determination, 96 well plates; type: cell-based, Bacillus subtilis; details: Bacillus subtilis; HBI medium, 16 to 18 hours at 37°C; read-out: MIC (µg/ml) B. subtilis
Procedure, shortened: (§1)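 Broth growth in Heart-Brain Infusion medium, seeded at about 1x10^5 CFU/ml, 16 to 18 hours at 37°C. Growth read at OD 600 nm as percent of untreated control; five concentrations per drug, five data points each, MIC reported in µg/ml.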

S. aureus = test: as above; type: cell-based, Staphylococcus aureus; details: Staphylococcus aureus, read-out: MIC (µg/ml) S. aureus
Procedure, shortened: (§2)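 Cultures seeded at approximately 1x10^5 CFU/ml in Heart-Brain Infusion medium were exposed to five compound concentrations, five data points each, for 16 to 18 hours at 37°C. Growth at OD 600 nm was expressed as percent of control, and MIC values are given in µg/ml.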

S.aureus (Smith) = test: as above; type: cell-based, Staphylococcus aureus; details: Staphylococcus aureus
Procedure, shortened: as §1

E. fecalis = test: as above; type: cell-based, Enterococcus fecalis; details: Enterococcus; HBI medium, 16 to 18 hours at 37°C; read-out: MIC (µg/ml) E. fecalis
Procedure, shortened: as §1

E. fecium = test: as above; type: cell-based, Enterococcus fecium; details: Enterococcus; HBI medium, 16 to 18 hours at 37°C; read-out: MIC (µg/ml) E. fecium
Procedure, shortened: as §1

E. coli = test: as above; type: cell-based, Escherichia coli; details: Escherichia coli; HBI medium, 16 to 18 hours at 37°C; read-out: MIC (µg/ml) E. coli
Procedure, shortened: as §2

MRSA 1123 = test: MIC against clinically relevant strains; type: cell-based; details: Staphylococcus aureus, methicillin resistant S. aureus strain
Experimental: (§3) The following methods were used to characterize representative compounds. Minimal Inhibitory Concentration (MIC) determinations. MIC values were determined in 96 well plates, with bacterial growth monitored at OD 600 nm in 200µl following an initial bacterial seeding at approximately 1x10^5 colony forming units (CFU)/ml. Each drug is evaluated at five concentrations, with five data points at each dilution. MIC values (µg/ml) were determined against actively growing cultures in Heart-Brain Infusion (HBI) medium. Cell growth in cultures supplemented with a test compound was calculated as a percent of control at OD 600 nm after 16 to 18 hours at 37°C. This plate format conserves test compound and provides precise, quantitative data with low standard deviation determinations. Polymerase IIIC (Pol IIIC) assay. DNA polymerase activity (or inhibition thereof) was measured in a 96-well plate format. B. subtilis Pol IIIC was isolated as described by Hammond and Brown (Protein Expr. Purif., 3: 65-70 (1992)). Each 25 µl assay contained 30 mM Tris, pH 7.5, 10 mM magnesium acetate, 4 mM dithiothreitol, 20% glycerol, with 25 µM dATP, dCTP, dGTP and 10 µM dTTP (^3H-labelled at 1.44 Ci/mmole) and 0.4 mg/ml activated calf thymus DNA as substrates, as described previously (see Barnes et al, op. cit). Assays were initiated by the addition of 0.025 to 0.06 units of enzyme 1 unit is the amount required to incorporate 250 pmoles of [^3H] dTMP in a standard assay), incubated for 10 minutes at 30°C and terminated by the addition of 200 µl of cold 10% trichloroacetic acid (TCA),10 mM sodium pyrophosphate. Precipitated labeled DNA was collected on glass fiber filter plates, washed, dried, and counted in a liquid scintillation counter. Determination of Ki values. DNA polymerase activity was measured in a 96-well plate format in the absence of dGTP or dATP, depending on the structure of the test compound. Each 25 µl assay contained 30 mM Tris, pH 7.5, 10 mM magnesium acetate, 4 mM dithiothreitol, 20% glycerol, with 25 µM dATP, dCTP, and 10 µM dTTP (^3H-labelled at 1.44 Ci/mmole) and 0.4 mg/ml activated calf thymus DNA as substrates, as described previously. To each well were added 2 µl of compound solution to give final concentrations ranging from 20 - 0.027 µg/ml in the assay. Assays were initiated by the addition of 0.025 to 0.06 units of enzyme (1 unit is the amount required to incorporate 250 pmoles of [^3H] dTMP in a standard assay), incubated for 10 minutes at 30 °C and terminated by the addition of 200 µl of cold 10% trichloroacetic acid, 10 mM sodium pyrophosphate. Precipitated labeled DNA was collected on glass fiber filter plates, washed, dried, and counted in a liquid scintillation counter. Ki is the concentration of test compound that reduces the control polymerase IIIC activity by 50 percent.
(§4) Compounds were also tested for antibacterial activity against certain clinically relevant strains, e.g., methicillin sensitive (MSSA) and methicillin resistant (MRSA) strains of Staphylococcus aureus.

MRSA1094 = test: MIC against clinically relevant strains; type: cell-based; details: Staphylococcus aureus; methicillin resistant S. aureus strain
Experimental: as §3, §4

MRSA1132 = test: MIC against clinically relevant strains; type: cell-based; details: Staphylococcus aureus; methicillin resistant S. aureus strain
Experimental: as §3, §4

MSSA108 = test: MIC against clinically relevant strains; type: cell-based; details: Staphylococcus aureus; methicillin sensitive S. aureus strain
Experimental: as §3, §4

MRSA 1094 = test: In vivo efficacy of Compound 70 in mouse models; set-up: species or system Staphylococcus aureus; details: mice, 10^7 CFU/mouse + 5% Mucin; positive control, 30mg/kg, t=0
Experimental: (§5) Swiss Webster mice, ca. 20 g each, were infected with Staphylococcus aureus (Smith strain) by the intraperitoneal route. Test compounds (2, 4, 5, 6, 7, 8, 10, 12) were dissolved in 10% dimethylsulfoxide in peanut oil to a concentration of 2 mg/ml. Vancomycin was used as positive control drug (i.e., protection from lethal infection). Fifteen minutes after infection, test compounds, vancomycin, or vehicle alone were given intraperitoneally to groups of five mice each. Animals were monitored for three days, and the number of mice surviving was tabulated for each treatment.
(§6) Using the same basic procedure as described above, the in vivo efficacy of Compound 70 was also evaluated at various doses in mice infected with S. aureaus (Smith), MRSA 1094, Enterococcus faecalis, or vancomycin-resistant Enterococcus faecalis strain VRE 700802. […] Negative controls were mice infected that received no treatment. Mucin was employed as an adjuvant to facilitate bacterial infection in mice, where indicated.

[1] = test system: Enterococcus faecalis (ATCC 29212); test: In vivo efficacy of Compound 70 in mouse models; details: mice, 3x10^7 CFU/mouse + 5% Mucin; positive control, 100mg/kg, t=0
Experimental: as §5, §6

[2] = test system: Staphylococcus aureus (Smith); test: In vivo efficacy of Compound 70 in mouse models; details: mice, 10^8 CFU/mouse; positive control, 30mg/kg, t=0
Experimental: as §5, §6

[3] = HBI medium, 16 to 18 hours at 37°C
[4] = HBI medium, 16 to 18 hours at 37°C, read-out: MIC (µg/ml) S.aureus (Smith)
[5] = table of MSSA/MRSA strains, read-out: MIC (µg/ml) S. aureus (Smith)

T1 sequence (P13267 whole entry): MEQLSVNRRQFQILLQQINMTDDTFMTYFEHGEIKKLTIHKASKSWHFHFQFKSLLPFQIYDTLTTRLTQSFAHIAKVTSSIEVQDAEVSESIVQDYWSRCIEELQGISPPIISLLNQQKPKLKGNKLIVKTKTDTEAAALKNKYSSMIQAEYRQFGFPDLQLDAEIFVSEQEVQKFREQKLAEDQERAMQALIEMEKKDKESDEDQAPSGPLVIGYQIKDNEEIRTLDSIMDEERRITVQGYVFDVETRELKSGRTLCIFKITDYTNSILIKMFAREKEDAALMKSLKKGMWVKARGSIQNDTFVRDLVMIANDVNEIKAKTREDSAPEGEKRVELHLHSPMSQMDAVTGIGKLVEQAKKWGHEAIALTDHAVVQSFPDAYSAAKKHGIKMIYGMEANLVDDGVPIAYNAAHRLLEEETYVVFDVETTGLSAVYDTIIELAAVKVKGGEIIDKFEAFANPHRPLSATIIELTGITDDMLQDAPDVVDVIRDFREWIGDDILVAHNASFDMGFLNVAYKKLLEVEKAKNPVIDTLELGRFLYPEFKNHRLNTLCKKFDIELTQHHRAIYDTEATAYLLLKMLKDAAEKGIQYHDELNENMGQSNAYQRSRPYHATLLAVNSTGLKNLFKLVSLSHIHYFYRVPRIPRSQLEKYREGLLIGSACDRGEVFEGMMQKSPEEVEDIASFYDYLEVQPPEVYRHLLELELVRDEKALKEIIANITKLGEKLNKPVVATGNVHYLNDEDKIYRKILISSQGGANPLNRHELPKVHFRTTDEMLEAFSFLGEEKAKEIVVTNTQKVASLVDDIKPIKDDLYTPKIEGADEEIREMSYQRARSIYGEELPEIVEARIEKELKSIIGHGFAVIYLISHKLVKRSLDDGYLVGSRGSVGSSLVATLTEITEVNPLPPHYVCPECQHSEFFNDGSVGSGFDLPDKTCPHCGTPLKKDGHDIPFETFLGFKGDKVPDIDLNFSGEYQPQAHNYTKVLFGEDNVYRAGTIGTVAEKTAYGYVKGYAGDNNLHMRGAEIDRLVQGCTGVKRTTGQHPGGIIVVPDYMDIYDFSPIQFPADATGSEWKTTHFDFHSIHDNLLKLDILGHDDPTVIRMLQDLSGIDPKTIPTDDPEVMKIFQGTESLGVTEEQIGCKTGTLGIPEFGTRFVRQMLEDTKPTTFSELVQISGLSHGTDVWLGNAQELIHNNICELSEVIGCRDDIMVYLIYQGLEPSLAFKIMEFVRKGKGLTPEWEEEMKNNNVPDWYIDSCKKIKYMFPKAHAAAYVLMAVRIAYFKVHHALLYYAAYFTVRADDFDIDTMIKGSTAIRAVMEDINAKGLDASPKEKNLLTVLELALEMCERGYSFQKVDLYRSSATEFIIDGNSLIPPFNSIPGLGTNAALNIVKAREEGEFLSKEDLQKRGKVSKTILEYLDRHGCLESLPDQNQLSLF

SMILES | Ki (B. subtilis Pol IIIC) | MIC (B. subtilis) | MIC (S. aureus; [3]) | MIC (S. aureus; table of MSSA/MRSA strains) | MIC (S.aureus (Smith); [4]) | MIC (S.aureus (Smith); [5]) | MIC (E. fecalis) | MIC (E. fecium) | MIC (E. coli) | MIC (MRSA 1123) | MIC (MRSA1094) | MIC (MRSA1132) | MIC (MSSA108) | % Survival at 72 hours (MRSA 1094) | % Survival at 72 hours [1] | % Survival at 72 hours [2]
CCc1cc(Nc2cc(=O)n(CCCCN3CCN(c4nc5c(cc4F)c(=O)c(C(=O)O)cn5CC)CC3)c(=O)[nH]2)ccc1C [Compound 6, 3-{4-[1-(1-ethyl-3-carboxy-4-oxo-6-fluoro-8-aza-7-quinolyl)-4-piperazinyl]butyl}-6-(3-ethyl-4-methylanilino)uracil] | 0.018 µM | 0.156 µg/mL (≈ 0.252 µM) | 0.625 µg/mL (≈ 1.01 µM) | 0.625 µg/mL (≈ 1.01 µM) | 0.625 µg/mL (≈ 1.01 µM) | 0.625 µg/mL (≈ 1.01 µM) | 1.25 µg/mL (≈ 2.02 µM) | 1.25 µg/mL (≈ 2.02 µM) | > 20 µg/mL | 0.625 mg/L (≈ 1.01 µM) | 1.25 mg/L (≈ 2.02 µM) | 0.625 mg/L (≈ 1.01 µM) | 0.625 mg/L (≈ 1.01 µM) |  |  | 
CCc1cc(Nc2cc(=O)n(CCCCN3CCN(c4c(F)cc5c(=O)c(C(=O)O)cn(CC)c5c4F)CC3)c(=O)[nH]2)ccc1C [Compound 7, 3-{4-[1-(1-ethyl-3-carboxy-4-oxo-6,8-difluoro-7-quinolyl)-4-piperazinyl]butyl}-6-(3-ethyl-4-methylanilino)uracil] | 0.021 µM | 0.156 µg/mL (≈ 0.245 µM) | 0.625 µg/mL (≈ 0.982 µM) | 0.625 µg/mL (≈ 0.982 µM) | 1.25 µg/mL (≈ 1.96 µM) | 0.625 µg/mL (≈ 0.982 µM) | 1.25 µg/mL (≈ 1.96 µM) | 1.25 µg/mL (≈ 1.96 µM) | > 20 µg/mL | 0.625 mg/L (≈ 0.982 µM) | 0.625 mg/L (≈ 0.982 µM) | 0.625 mg/L (≈ 0.982 µM) | 0.313 mg/L (≈ 0.492 µM) |  |  | 
CN[C@H](CC(C)C)C(=O)N[C@H]1C(=O)N[C@@H](CC(N)=O)C(=O)N[C@H]2C(=O)N[C@H]3C(=O)N[C@H](C(=O)N[C@H](C(=O)O)c4cc(O)cc(O)c4-c4cc3ccc4O)[C@H](O)c3ccc(c(Cl)c3)Oc3cc2cc(c3O[C@@H]2O[C@H](CO)[C@@H](O)[C@H](O)[C@H]2O[C@H]2C[C@](C)(N)[C@H](O)[C@H](C)O2)Oc2ccc(cc2Cl)[C@H]1O [vancomycin, reference compound] |  |  |  |  |  |  |  |  |  |  |  |  |  | 95% (19/20)** | vancomycin (100mg/kg, t=0) 100% (10/10)** | 100% (20/20)**
CCc1cc(Nc2cc(=O)n(CCCCN3CCN(c4c(F)cc5c(=O)c(C(=O)O)cn(CC)c5c4Cl)CC3)c(=O)[nH]2)ccc1C [Compound 5, 3-{4-[1-(1-ethyl-3-carboxy-4-oxo-6-fluoro-8-chloro-7-quinolyl)-4-piperazinyl]butyl}-6-(3-ethyl-4-methylanilino)uracil] | 0.016 µM | 0.078 µg/mL (≈ 0.119 µM) | 0.156 µg/mL (≈ 0.239 µM) | 0.156 µg/mL (≈ 0.239 µM) | 0.156 µg/mL (≈ 0.239 µM) | 0.156 µg/mL (≈ 0.239 µM) | 1.25 µg/mL (≈ 1.91 µM) | 2.5 µg/mL (≈ 3.83 µM) | 10 µg/mL (≈ 15.3 µM) | 0.625 mg/L (≈ 0.957 µM) | 0.625 mg/L (≈ 0.957 µM) | 0.625 mg/L (≈ 0.957 µM) | 0.625 mg/L (≈ 0.957 µM) |  |  | 
